In the NIST ThermoML archive (doi:10.1021/je060271a):
Numbers after ± are expanded uncertainties.

Conditions: 343.15 K, Liquid, Vibrating tube method

CCCC(=O)OCC(COC(=O)CCC)(COC(=O)CCC)COC(=O)CCC [pentaerythritol tetrabutyrate]
Conditions | mass density [kg/m3]
14185 kPa | 1019 ± 1.2
14223 kPa | 1019.1 ± 1.2
14263 kPa | 1019 ± 1.2
14296 kPa | 1019.1 ± 1.2
14334 kPa | 1019.1 ± 1.2
14374 kPa | 1019.1 ± 1.2
14412 kPa | 1019.1 ± 1.2
14452 kPa | 1019.2 ± 1.2
14485 kPa | 1019.2 ± 1.2
14525 kPa | 1019.1 ± 1.2
14564 kPa | 1019.1 ± 1.2
14606 kPa | 1019.2 ± 1.2
14639 kPa | 1019.3 ± 1.2
14680 kPa | 1019.3 ± 1.2
14721 kPa | 1019.3 ± 1.2
14764 kPa | 1019.4 ± 1.2
14805 kPa | 1019.4 ± 1.2
14840 kPa | 1019.4 ± 1.2
15093 kPa | 1019.6 ± 1.2
15139 kPa | 1019.6 ± 1.2
15180 kPa | 1019.6 ± 1.2
15211 kPa | 1019.8 ± 1.2
15248 kPa | 1019.7 ± 1.2
15286 kPa | 1019.7 ± 1.2
15317 kPa | 1019.7 ± 1.2
15355 kPa | 1019.8 ± 1.2
15392 kPa | 1019.8 ± 1.2
15430 kPa | 1019.8 ± 1.2
15469 kPa | 1019.9 ± 1.2
15538 kPa | 1019.9 ± 1.2
15616 kPa | 1020 ± 1.2
15655 kPa | 1019.9 ± 1.2
15688 kPa | 1020.1 ± 1.2
15727 kPa | 1020.1 ± 1.2
15769 kPa | 1020 ± 1.2
15802 kPa | 1020.2 ± 1.2
15842 kPa | 1020.2 ± 1.2
15881 kPa | 1020.2 ± 1.2
15922 kPa | 1020.2 ± 1.2
15956 kPa | 1020.2 ± 1.2
15997 kPa | 1020.2 ± 1.2
16038 kPa | 1020.3 ± 1.2
16079 kPa | 1020.2 ± 1.2
16120 kPa | 1020.4 ± 1.2
16154 kPa | 1020.3 ± 1.2
16195 kPa | 1020.4 ± 1.2
16239 kPa | 1020.3 ± 1.2
16276 kPa | 1020.5 ± 1.2
16318 kPa | 1020.4 ± 1.2
16360 kPa | 1020.5 ± 1.2
16403 kPa | 1020.5 ± 1.2
16446 kPa | 1020.6 ± 1.2
16489 kPa | 1020.5 ± 1.2
16526 kPa | 1020.6 ± 1.2
16570 kPa | 1020.6 ± 1.2
16614 kPa | 1020.7 ± 1.2
16659 kPa | 1020.6 ± 1.2
16696 kPa | 1020.7 ± 1.2
16741 kPa | 1020.8 ± 1.2
16787 kPa | 1020.9 ± 1.2
16833 kPa | 1020.9 ± 1.2
16879 kPa | 1020.9 ± 1.2
16918 kPa | 1021 ± 1.2
16964 kPa | 1021 ± 1.2
17012 kPa | 1020.9 ± 1.2
17052 kPa | 1021 ± 1.2
17100 kPa | 1021.1 ± 1.2
17143 kPa | 1021.2 ± 1.2
17186 kPa | 1021 ± 1.2
17229 kPa | 1021.2 ± 1.2
17265 kPa | 1021.1 ± 1.2
17310 kPa | 1021.1 ± 1.2
17355 kPa | 1021.3 ± 1.2
17393 kPa | 1021.2 ± 1.2
17439 kPa | 1021.3 ± 1.2
17485 kPa | 1021.2 ± 1.2
17525 kPa | 1021.4 ± 1.2
17560 kPa | 1021.3 ± 1.2
17590 kPa | 1021.4 ± 1.2
17624 kPa | 1021.4 ± 1.2
17660 kPa | 1021.5 ± 1.2
17694 kPa | 1021.4 ± 1.2
17730 kPa | 1021.5 ± 1.2
17760 kPa | 1021.5 ± 1.2
17796 kPa | 1021.6 ± 1.2
17870 kPa | 1021.5 ± 1.2
17900 kPa | 1021.5 ± 1.2
17935 kPa | 1021.6 ± 1.2
17972 kPa | 1021.8 ± 1.2
18009 kPa | 1021.6 ± 1.2
18039 kPa | 1021.7 ± 1.2
18076 kPa | 1021.8 ± 1.2
18113 kPa | 1021.7 ± 1.2
18150 kPa | 1021.8 ± 1.2
18187 kPa | 1021.7 ± 1.2
18218 kPa | 1021.8 ± 1.2
18256 kPa | 1021.9 ± 1.2
18294 kPa | 1021.8 ± 1.2
18332 kPa | 1022 ± 1.2
18370 kPa | 1021.9 ± 1.2
18402 kPa | 1021.9 ± 1.2
18441 kPa | 1022 ± 1.2
18479 kPa | 1022 ± 1.2
18518 kPa | 1022.1 ± 1.2
18552 kPa | 1022.2 ± 1.2
18590 kPa | 1022.1 ± 1.2
18630 kPa | 1022.1 ± 1.2
18669 kPa | 1022.1 ± 1.2
18703 kPa | 1022.1 ± 1.2
18742 kPa | 1022.2 ± 1.2
18784 kPa | 1022.2 ± 1.2
18824 kPa | 1022.3 ± 1.2
18864 kPa | 1022.3 ± 1.2
18898 kPa | 1022.2 ± 1.2
18938 kPa | 1022.4 ± 1.2
18978 kPa | 1022.3 ± 1.2
19020 kPa | 1022.4 ± 1.2
19054 kPa | 1022.4 ± 1.2
19096 kPa | 1022.5 ± 1.2
19138 kPa | 1022.5 ± 1.2
19216 kPa | 1022.5 ± 1.2
19297 kPa | 1022.6 ± 1.2
19340 kPa | 1022.6 ± 1.2
19382 kPa | 1022.6 ± 1.2
19425 kPa | 1022.6 ± 1.2
19468 kPa | 1022.7 ± 1.2
19504 kPa | 1022.8 ± 1.2
19548 kPa | 1022.7 ± 1.2
19591 kPa | 1022.9 ± 1.2
19634 kPa | 1022.7 ± 1.2
19679 kPa | 1022.9 ± 1.2
19717 kPa | 1022.8 ± 1.2
19761 kPa | 1022.8 ± 1.2
19809 kPa | 1022.9 ± 1.2
19854 kPa | 1022.9 ± 1.2
19892 kPa | 1023 ± 1.2
19938 kPa | 1023 ± 1.2
19984 kPa | 1023.1 ± 1.2
20022 kPa | 1023.2 ± 1.2
20068 kPa | 1023.1 ± 1.2
20115 kPa | 1023.2 ± 1.2
20161 kPa | 1023.1 ± 1.2
20200 kPa | 1023.2 ± 1.2
20247 kPa | 1023.1 ± 1.2
20294 kPa | 1023.1 ± 1.2
20341 kPa | 1023.3 ± 1.2
